Measured values from patent publication US20210087533A1, “CANINE EPITHELIAL ORGANOIDS AND METHODS OF MAKING, RECOVERING, AND USE” (Iowa State University Research Foundation, Inc., priority 2019, published 2021).
Blank lines part the entries; values can stand above or below the molecule they belong to.

Columns and labels:
TCC organoids [1] = assay: Ki-67 IHC staining (proliferation) of TCC organoids; type: cell-based, canine
TCC organoids [2] = assay: MTT cell viability (cytotoxicity) assay, TCC organoids; type: cell-based, canine; conditions: for effect on TCC cell viability (MTT assay): old, much passaged TCC organoids
Experimental: Transitional Cell Carcinoma (TCC) Organoid Isolation and Culture. Canine bladder cancer cells for TCC organoids were isolated from urine (TCC #1) or biopsies (TCC #2) of dogs with transitional cell carcinoma. Briefly, urine was centrifuged and washed or small biopsies were washed with 1×Complete Chelation Solution (CCS) and vortexing up to 6 times, then incubated in 20-30 mM EDTA for 1 hour at 4° C. on a rocker. FBS and CCS was added to stop EDTA chelation, mixed, and the supernatant containing cancer cells was put in a new tube. Samples were centrifuged at 150 g for 5 minutes at 4° C., resuspended in DMEM/F12, centrifuged again, and the pellet was resuspended in 120 ul […]®. […]® droplets were then plated at 30 ul/well […]®/cells on 24-well plates. Complete Media with Growth Factors (CMGF+) containing Rock inhibitor and GSK inhibitor was added for 2-3 days at 37 C, and after 2-3 days, TCC organoids were cultured in CMGF+ media without inhibitors. TCC organoids were passaged every 4-7 days with TrypLE Express to dissociate organoids to single cells.
MTT Cell Viability Assay (Cytotoxicity Assay). Organoids from healthy intestine or transitional cell carcinoma (TCC) were dissociated and plated at equal density in 30 ul/well […]® in 24-well plates in 500 ul/well CMGF+ growth medium. On Day 1-4 after passage, organoids were incubated with the indicated drug for 48 or 96 hours. Cytotoxicity was determined using 3-(4,5-dimethylthiazol-2-yl) 2,5-diphenyl tetrazolium bromide (MTT) at a final concentration of 0.5 mg/mL for 1.5 hr. After medium removal, 200 ul/well cold DMSO was used to dissolve the formazan dye crystals and absorbance was read at 570 nm using a plate reader (SpectraMax 190, Molecular Devices).
As DMSO freezes […] but it is preferable to use cold media (4° C.) to dissolve the […]®. Thus, put DMSO briefly in 4° C. fridge or −20° C. freezer and remove before it all freezes, then use cold DMSO, pipette up and down vigorously, shake the plate, put plate in freezer briefly, etc. to try to get the […]® and formazan dye crystals to dissolve.

TCC organoids [3] = assay: Morphology of treated TCC organoids; type: cell-based, canine; conditions: fenoldopam-treated TCC organoids
canine UC organoids = assay: MTT assay for metabolic activity of urine-derived UC organoids; type: cell-based; conditions: incubation for 24-48 hours
Experimental: Free-catch urine was collected from one dog at time of UC diagnosis. Samples were centrifuged and supernatant was removed. The resulting pellet was washed with phosphate-buffered saline (PBS), then incubated in complete chelating solution (CCS) with EDTA and plated in […]® for establishment of organoid culture within one week. Sub-samples of differentiated UC organoids were taken for 3-(4,5-dimethylthiazol-2-yl)-2,5-diphenyltetrazolium bromide (MTT) assay for metabolic activity assessment after incubation with chemotherapeutic agents. Remaining UC organoids were characterized with H&E, RNA in-situ hybridization (RNA-ISH), and immunohistochemistry (IHC) staining techniques.

P-gp = biological target: T1, P-gp (Canis lupus familiaris, UniProt C0KKU9); assay: Rhodamine 123 (Rh123) transport in canine ileal enteroids; type: cell-based; conditions: Rh123 1-50 μM, 30 min incubation, without verapamil
T1 construct: Therefore, P-gp of the enteroids have maintained their transportation ability; endogenous in cells; host or cells: canine ileal enteroids (3D organoids from adult intestinal stem cells of dogs)
T1 sequence (C0KKU9 1-1281): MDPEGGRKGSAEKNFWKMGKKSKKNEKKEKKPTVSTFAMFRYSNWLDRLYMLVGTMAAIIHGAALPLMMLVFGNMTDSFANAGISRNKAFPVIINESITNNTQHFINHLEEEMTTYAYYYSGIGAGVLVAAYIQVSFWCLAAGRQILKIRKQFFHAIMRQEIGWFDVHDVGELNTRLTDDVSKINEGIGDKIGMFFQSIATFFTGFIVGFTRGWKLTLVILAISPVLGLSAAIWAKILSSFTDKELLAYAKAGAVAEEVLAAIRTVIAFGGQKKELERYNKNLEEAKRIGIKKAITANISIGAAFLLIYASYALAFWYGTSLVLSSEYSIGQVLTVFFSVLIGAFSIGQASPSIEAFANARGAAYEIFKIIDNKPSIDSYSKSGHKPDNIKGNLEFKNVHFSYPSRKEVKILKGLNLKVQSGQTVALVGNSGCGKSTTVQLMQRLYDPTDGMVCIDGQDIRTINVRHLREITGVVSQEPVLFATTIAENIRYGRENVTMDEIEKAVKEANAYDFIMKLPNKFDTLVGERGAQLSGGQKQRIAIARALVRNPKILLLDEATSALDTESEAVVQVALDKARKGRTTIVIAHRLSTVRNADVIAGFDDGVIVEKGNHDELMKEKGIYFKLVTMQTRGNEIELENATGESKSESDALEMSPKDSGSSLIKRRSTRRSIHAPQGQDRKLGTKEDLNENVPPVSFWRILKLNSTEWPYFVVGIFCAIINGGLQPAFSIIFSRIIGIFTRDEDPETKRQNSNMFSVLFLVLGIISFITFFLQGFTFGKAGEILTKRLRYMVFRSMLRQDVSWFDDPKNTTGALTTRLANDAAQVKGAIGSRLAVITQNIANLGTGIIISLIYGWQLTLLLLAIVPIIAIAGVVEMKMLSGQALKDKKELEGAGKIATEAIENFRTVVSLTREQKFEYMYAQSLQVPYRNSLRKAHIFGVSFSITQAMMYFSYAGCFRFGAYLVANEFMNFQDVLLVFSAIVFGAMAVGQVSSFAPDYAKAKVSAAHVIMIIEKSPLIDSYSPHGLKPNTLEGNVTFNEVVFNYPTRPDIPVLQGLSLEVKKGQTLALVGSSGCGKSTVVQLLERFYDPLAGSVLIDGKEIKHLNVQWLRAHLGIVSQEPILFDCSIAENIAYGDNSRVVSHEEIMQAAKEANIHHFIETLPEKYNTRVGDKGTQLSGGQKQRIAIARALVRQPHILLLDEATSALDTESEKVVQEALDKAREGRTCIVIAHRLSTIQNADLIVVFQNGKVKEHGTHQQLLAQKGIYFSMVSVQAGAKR
Experimental: Canine ileal enteroids were passaged into 15 μL per well of […] ® in chambered cover glass system (Lab-Tek, Chambered Coverglass 8 well) and cultured with 300 μL per well of CMGF+ media for 2 days. […] Rh123 transport experiments were divided into: (1) Control [CTR] […] Enteroids were treated for 30 min and then washed with room-temperature PBS.
Confocal microscopy (SP5 X MP LAS X; Leica) at the Iowa State University Roy J. Carver High Resolution Microscopy Facility was used to acquire images to detect green fluorescence within the luminal aspect of the enteroids. Fluorescence intensity was controlled by the luminal area to control for the size variation of the enteroids and quantified using the ImageJ software.
Student's t-tests were used to compare study groups (CTR vs. TRT) for the various doses of Rh123. The Benjamini-Hochberg Procedure was performed to control the risk of false positive for multiple comparisons. All statistical analyses were perform using GraphPad Prism 8.2.1 (San Diego, Calif.) and R 3.5.1. P<0.05 were considered as statistically significant.

Molecule: NCCc1ccc(O)c(O)c1 [Dopamine]
increase of Ki-67 IHC staining (TCC organoids [1]; 0.1, 1, 10 μM): about 2 fold

Molecule: COc1cccc2c1C(=O)c1c(O)c3c(c(O)c1C2=O)C[C@@](O)(C(=O)CO)C[C@@H]3O[C@H]1C[C@H](N)[C@H](O)[C@H](C)O1 [Doxorubicin]
TCC organoid cell viability (MTT) (TCC organoids [2]; 10 μM doxorubicin): 50 % of control
effect on TCC organoid cell viability (MTT), other runs (TCC organoids [2]; sometimes observed): small 20% effect or no effect
Ki-67 IHC (proliferation) (TCC organoids [1]; 0.1 μM Dox, once): 10-20 % of control

Molecule: C[C@H](NC(=O)c1c(C(F)F)nn(C)c1Oc1cccc(C(F)(F)F)c1)c1ccc(C(=O)O)cc1 [E-7046]
effect on TCC cell viability (MTT assay) (TCC organoids [2]; other plate, dose not given): slight stimulatory effect

Molecule: NS(=O)(=O)NCCNc1nonc1C(=NO)Nc1ccc(F)c(Br)c1 [Epacadostat]
TCC cell viability (MTT assay) (TCC organoids [2]; 1 μM Epacadostat, 48 hours): about 80 % of control
decrease of TCC cell viability (MTT assay) (TCC organoids [2]; other doses of Epacadostat, 48 hours): not at the other doses

Molecule: COc1cc(OC)cc(N(CCNC(C)C)c2ccc3ncc(-c4cnn(C)c4)nc3c2)c1 [Erdafitinib]
effect on TCC cell viability (MTT assay) (TCC organoids [2]; 1-10 μM): no effect

Molecule: Oc1ccc(C2CNCCc3c2cc(O)c(O)c3Cl)cc1 (centres unmarked) [Fenoldopam]
decrease of TCC organoid Ki-67 (proliferation) (TCC organoids [1]; 1 nM Fenoldopam): about 50%
effect on TCC organoid Ki-67 (proliferation) (TCC organoids [1]; 10 μM Fenoldopam): did not have much effect
lumens/holes in the TCC organoids (TCC organoids [3]): getting bigger

Molecule: CN1C(C(=O)Nc2ccccn2)=C(O)c2ccccc2S1(=O)=O [Piroxicam]
cell viability (MTT) (TCC organoids [2]; 1-10 μM, 48 hours or 4 days, organoid type not restated): ≥ 80 % of control
decrease of Ki-67 staining (TCC organoids [1]; 0.1 μM Piroxicam): 50%
increase of Ki-67 IHC staining (TCC organoids [1]; 1-10 μM Piroxicam): 2-3 fold

Molecule: CC[C@]1(O)C[C@@H]2CN(CCc3c([nH]c4ccccc34)[C@@](C(=O)OC)(c3cc4c(cc3OC)N(C)[C@H]3[C@@](O)(C(=O)OC)[C@H](OC(C)=O)[C@]5(CC)C=CCN6CC[C@]43[C@@H]65)C2)C1 [Vinblastine]
effect on TCC cell viability (MTT assay) (TCC organoids [2]; other plate, dose not given): slight stimulatory effect

Molecule: N.N.[Cl][Pt][Cl] [cisplatin]
metabolic activity of UC organoids (MTT) (canine UC organoids): reduced metabolic activity

Rh123 luminal transportation (P-gp): significant dose response
Molecule: Rhodamine 123 [Rh123]
